Key:
α1a-AR = target: T1, α1a-AR (Homo sapiens, UniProt P35348); assay: Radioligand ([125I]-HEAT) receptor binding assay, COS cell membranes expressing α1a-AR; conditions: [125I]-HEAT 50 pM
T1 construct: expressed in transfected cells; host or cells: COS cells (transient, DEAE-dextran), membranes
T1 sequence (P35348 1-466): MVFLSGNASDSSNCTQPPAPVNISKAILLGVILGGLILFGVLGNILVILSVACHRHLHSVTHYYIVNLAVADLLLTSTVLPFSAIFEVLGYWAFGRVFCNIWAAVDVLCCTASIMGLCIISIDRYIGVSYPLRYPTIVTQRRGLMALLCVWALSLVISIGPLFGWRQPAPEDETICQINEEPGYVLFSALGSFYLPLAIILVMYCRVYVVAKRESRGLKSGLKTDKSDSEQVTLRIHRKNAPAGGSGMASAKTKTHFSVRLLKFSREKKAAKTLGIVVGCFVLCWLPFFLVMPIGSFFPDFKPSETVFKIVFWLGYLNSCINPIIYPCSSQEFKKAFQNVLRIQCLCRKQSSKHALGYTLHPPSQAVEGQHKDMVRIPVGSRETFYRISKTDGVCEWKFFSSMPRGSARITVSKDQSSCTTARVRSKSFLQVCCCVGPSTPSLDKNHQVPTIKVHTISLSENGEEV
Source text: (§1) The DNA sequences of the three cloned human α1-AR subtypes have been published. […] We used published DNA sequence information to design primers for use in RT-PCR amplification of each subtype to obtain cloned cDNAs. Human poly A+ RNA was obtained from commercially available sources and included hippocampus and prostate samples, sources which have been cited in the literature. For the primary screen a radio ligand binding assay was used which employed membrane preparations from cells expressing the individual cloned receptor cDNAs. Radiolabeled ligands with binding activity on all three subtypes (non-selective) are commercially available ([125I]-HEAT, [3H]-prazosin).
(§2) Each α1 receptor subtype was cloned from poly A+ RNA by the standard method of reverse transcription-polymerase chain reaction (RT-PCR). The following sources of polyA+ RNA were used for the cloning of the α1 receptor subtypes: α1a-AR, human hippocampus and prostate, α1b-AR, human hippocampus, α1d-AR, human hippocampus. The resulting cDNAs were cloned into the pcDNA3 mammalian expression vector (Invitrogen Corp., San Diego Calif.). Each DNA was sequenced for verification and to detect any possible mutations introduced during the amplification process. Any deviation in sequence from the published consensus for each receptor subtype was corrected by site-directed mutagenesis.
(§3) The three α1-AR subtypes (a, b, d) were transfected into COS cells using a standard DEAE-dextran procedure with a chloroquine shock. In this procedure, each tissue culture dish (100 mm) was inoculated with 3.5×10^6 cells and transfected with 10 μg of DNA. Approximately 72 hours post-transfection, the cells were harvested and COS membranes were prepared. Transfected COS cells from 25 plates (100 mm) were scraped and suspended in 15 mL of TE buffer (50 mM Tris-HCl, 5 mM EDTA, pH7.4). The suspension was disrupted with a homogenizer. It was then centrifuged at 1000×g for 10 minutes at 4° C. The supernatant was centrifuged at 34,500×g for 20 minutes at 4° C. The pellet was resuspended in 5 mL TNE buffer (50 mM Tris-HCl, 5 mM EDTA, 150 mM NaCl, pH7.4). The resulting membrane preparation was aliquoted and stored at −70° C. The protein concentration was determined following membrane solubilization with TritonX-100.
(§4) The ability of each compound to bind to each of the α1-AR subtypes was assessed in a receptor binding assay. [125I]-HEAT, a non-selective α1-AR ligand, was used as the radiolabeled ligand. Each well of a 96-well plate received: 140 μL TNE, 25 μL [125I]-HEAT diluted in TNE (50,000 cpm; final concentration 50 pM), 10 μL test compound diluted in DMSO (final concentration 1 pM-[…]), […] COS cell membrane preparation expressing one of the three α1-AR subtypes (0.05-0.2 mg membrane protein). The plate was incubated for 1 hour at room temperature and the reaction mixtures were filtered through a Packard GF/C Unifilter filter plate. The filter plate was dried for 1 hour in a vacuum oven. Scintillation fluid ([…]) was added to each well, and the filter plate was counted in a Packard Topcount scintillation counter. Data was analyzed using GraphPad Prism software.
(§5) Tables A & B list the IC50 values expressed in nanomolar concentration for select compounds of the invention in all receptor subtypes.

[1] = target: T2, HEK 293s cells expressing human α1a-AR (Homo sapiens, UniProt P35348); assay: Antagonism of norepinephrine-induced mobilization of cytosolic calcium (Fluo-3, FLIPR); format: cell-based; conditions: norepinephrine 10 uM, read-out: IC50 for inhibition of the mobilization of cytosolic calcium
T2 construct: expressed in transfected cells
T2 sequence (P35348 1-466): T1 sequence (P35348 1-466)
Source text: Binding of an agonist to α1-ARs causes the activation of PLC through G-protein coupled mechanisms (Minneman and Esbenshade, 1994). PLC catalyzes the hydrolysis of phosphatidyl inositol 4,5-bisphosphate (PIP2) generating two second messenger molecules, inositol 1,4,5-triphosphate (IP3) and diacylglycerol (DAG) and ultimately resulting in mobilization of intracellular calcium stores.
Preparation of stable cell lines expressing each receptor subtype: The alpha 1 adrenergic receptor subtypes (a, b, d) in the pcDNA3 vector were transfected into HEK 293s (human embryonic kidney) cells to form stable receptor-expressing cell lines. Transfection was performed using DMRIE-C (GibcoBRL) cationic lipid reagent mixed with 2-3 ug of DNA and reduced serum OPTI-MEM 1 medium (GibcoBRL). Cells in 100 mm tissue culture plates were overlayed with the lipid-DNA complex and incubated at 37° C., 5% CO2 for 5-6 hours. Serum-containing growth medium was then added and cells were incubated for an additional 48 hours. […] Positive cultures were subsequently analyzed by the calcium mobilization assay.
HEK 293s cells expressing human α1a-AR were lifted with trypsin and washed once with HBSS. […] Afterward, the agonist was added and fluorescent signal was monitored for 2-3 minutes using FLIPR (Molecular Devices, USA).

α1d-AR = target: T3, α1d-AR (Homo sapiens, UniProt P25100); assay: Radioligand ([125I]-HEAT) receptor binding assay, COS cell membranes expressing α1d-AR; conditions: [125I]-HEAT 50 pM
T3 construct: expressed in transfected cells; host or cells: COS cells (transient, DEAE-dextran), membranes
T3 sequence (P25100 1-572): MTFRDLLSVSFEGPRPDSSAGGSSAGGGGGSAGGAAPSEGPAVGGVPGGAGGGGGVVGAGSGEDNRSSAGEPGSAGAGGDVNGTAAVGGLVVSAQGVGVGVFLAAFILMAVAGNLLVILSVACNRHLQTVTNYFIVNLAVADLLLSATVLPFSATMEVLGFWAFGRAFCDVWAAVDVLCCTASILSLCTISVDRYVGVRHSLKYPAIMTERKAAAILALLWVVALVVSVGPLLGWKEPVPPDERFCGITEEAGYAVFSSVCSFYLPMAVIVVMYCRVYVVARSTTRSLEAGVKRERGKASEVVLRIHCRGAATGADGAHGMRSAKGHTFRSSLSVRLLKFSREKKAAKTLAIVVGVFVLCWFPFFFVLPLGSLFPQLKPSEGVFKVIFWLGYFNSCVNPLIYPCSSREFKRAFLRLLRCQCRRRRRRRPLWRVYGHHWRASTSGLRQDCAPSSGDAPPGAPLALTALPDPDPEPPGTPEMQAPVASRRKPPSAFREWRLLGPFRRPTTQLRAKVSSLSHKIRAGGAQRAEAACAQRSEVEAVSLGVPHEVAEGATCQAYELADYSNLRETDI
Source text: as §1, §2, §3, §4, §5

[2] = system: rat prostatic tissue (α1a-AR); assay: Norepinephrine-induced contractile response of rat prostatic tissue; conditions: rat prostatic strips, 32° C., read-out: IC50 for inhibition of contractile response in prostate tissue
Source text: (§6) The contractile responses of rat prostatic tissue and rat aorta tissues were examined in the presence and absence of antagonist compounds. As an indication of the selectivity of antagonism, test compound effects on vascular smooth muscle contractility (α1b-AR and α1d-AR) were compared to the effects on prostatic smooth muscle (α1a-AR). Strips of prostatic tissue and aortic rings were obtained from Long Evans derived male rats weighing 275 grams and sacrificed by cervical dislocation. The prostate tissue was placed under 1 gram tension in a 10 ml bath containing phosphate buffered saline pH 7.4 at 32° C. and isometric tension was measured with force transducers. The aortic tissue was placed under 2 grams tension in a 10 ml bath containing phosphate buffered saline pH 7.4 at 37° C. The ability of test compound to reduce the norepinephrine-induced contractile response by 50% (IC50) was determined.

[3] = system: rat aorta tissue (α1b-AR and α1d-AR); assay: Norepinephrine-induced contractile response of rat aorta tissue; conditions: rat aortic rings, 37° C., read-out: IC50 for inhibition of contractile response in aortic tissue
Source text: as §6

α1b-AR = target: T4, α1b-AR (Homo sapiens, UniProt P35368); assay: Radioligand ([125I]-HEAT) receptor binding assay, COS cell membranes expressing α1b-AR; conditions: [125I]-HEAT 50 pM
T4 construct: expressed in transfected cells; host or cells: COS cells (transient, DEAE-dextran), membranes
T4 sequence (P35368 1-520): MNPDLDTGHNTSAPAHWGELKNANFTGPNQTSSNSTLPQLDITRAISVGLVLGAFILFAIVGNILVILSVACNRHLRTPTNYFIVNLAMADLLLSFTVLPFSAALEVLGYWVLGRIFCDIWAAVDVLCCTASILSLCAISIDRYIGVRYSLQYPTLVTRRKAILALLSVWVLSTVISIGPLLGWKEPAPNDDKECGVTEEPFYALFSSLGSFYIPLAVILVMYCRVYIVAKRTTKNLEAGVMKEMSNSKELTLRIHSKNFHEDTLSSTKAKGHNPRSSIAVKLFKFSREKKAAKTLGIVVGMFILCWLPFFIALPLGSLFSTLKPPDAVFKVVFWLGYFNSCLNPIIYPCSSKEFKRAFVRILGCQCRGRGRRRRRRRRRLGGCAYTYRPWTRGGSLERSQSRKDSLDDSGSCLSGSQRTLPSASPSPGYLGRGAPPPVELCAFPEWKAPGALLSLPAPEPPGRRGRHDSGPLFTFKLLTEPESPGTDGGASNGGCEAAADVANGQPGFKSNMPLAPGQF
Source text: as §1, §2, §3, §4, §5

CC(C)Oc1ccccc1N1CCN(CCNC(=O)CN2CCCCC2=O)CC1 [Cpd. 5]
IC50 (α1a-AR; Table A): 0.0087 µM
IC50 [1]: 99 µM
IC50 (α1d-AR; Table A): 0.372 µM
IC50 [2]: 1.3 µM
IC50 [3]: 31.9 µM
IC50 (α1b-AR; Table A): 46.1 µM

CC(C)Oc1ccccc1N1CCN(CCN(C)C(=O)CN2CCCCC2=O)CC1 [Cpd. 6]
IC50 (α1a-AR; Table A): 0.053 µM
IC50 (α1d-AR; Table A): 0.65 µM
IC50 (α1b-AR; Table A): 764 µM

C=CCN(CCN1CCN(c2ccccc2OC(C)C)CC1)C(=O)CN1CCCCC1=O [compound 7]
IC50 (α1a-AR; Table A): 0.103 µM
IC50 (α1d-AR; Table A): 0.372 µM
IC50 (α1b-AR; Table A): 173 µM

CC(C)Oc1ccccc1N1CCN(CCN(Cc2ccccc2)C(=O)CN2CCCCC2=O)CC1 [compound 9]
IC50 (α1a-AR; Table A): 0.088 µM
IC50 (α1d-AR; Table A): 0.348 µM
IC50 (α1b-AR; Table A): 4.23 µM

CCOC(=O)C1CCC(=O)N1CC(=O)NCCN1CCN(c2ccccc2OC(C)C)CC1 (stereo not drawn) [compound 10]
IC50 (α1a-AR; Table A): 0.02 µM
IC50 (α1d-AR; Table A): 0.26 µM
IC50 (α1b-AR; Table A): 26.3 µM

CC(C)Oc1ccccc1N1CCN(CCNC(=O)CN2CCCCCC2=O)CC1 [compound 11]
IC50 (α1a-AR; Table A): 0.018 µM
IC50 (α1d-AR; Table A): 0.505 µM
IC50 (α1b-AR; Table A): 3.54 µM

COc1ccccc1N1CCN(CCCNC(=O)CN2CCCCC2=O)CC1 [compound 12]
IC50 (α1a-AR; Table A): 0.098 µM
IC50 (α1d-AR; Table A): 30.5 µM
IC50 (α1b-AR; Table A): 109 µM

CC(C)Oc1ccccc1N1CCN(CCNC(=O)CN2C(=O)c3ccccc3C2=O)CC1 [compound 13]
IC50 (α1a-AR; Table B): 0.104 µM
IC50 (α1d-AR; Table B): 0.011 µM
IC50 (α1b-AR; Table B): 1.62 µM

— patent publication US6890921B1, “Arylsubstituted piperazines useful in the treatment of benign prostatic hyperplasia” (Ortho-McNeil Pharmaceutical, Inc., priority 1997, dated 2005)
